Measurements: patent US20110039793A1, “Application of ginsenoside Rb1 in preparing medicaments for treating dilated cardiomyopathy” (priority 2008, published 2011)

Assays:
[1] = tested on: cTnT^R141W transgenic dilated cardiomyopathy mice model; experiment: Survival analysis of cTnT^R141W transgenic mice after long-term administration; format: in vivo; conditions: 75 mg/kg in drinking water for seven months
Protocol: (§1) The positive mice at 1.5 months old are distributed by weight and cardiac function uniformly into the model group and the ginsenoside Rb1 administration group according to the echocardiography result, and each group comprises twelve mice. Ginsenoside Rb1, 75 mg/kg (State Yao zhun Zi, Yun Nan Tean Na Pharmaceutical Co., Ltd) is put into animal drinking water, and continuously administered for seven months.
Individual death occurs in the feeding process of the cTnT^R141W transgenic mice model. From the beginning of administration to the observation endpoint, the death of animal of each group is recorded. The death of animal of the negative control group is zero, and the model group is four, and the ginsenoside Rb1 group is two.

[2] = tested on: cTnT^R141W transgenic dilated cardiomyopathy mice model; experiment: M-mode echocardiography, cardiac function and morphous, once a month; format: in vivo; set-up: CO (Cardiac Output) / LVAW; d (left ventricular anterior wall thickness, end of diastole) / LV Mass (AW) (weight of the left ventricular) / Diameter; d (inner diameter of the left ventricular, end of diastole) / Volume; d (volume of the left ventricular, end of diastole) / SV (Stroke Volume): unit not given here; conditions: for CO (Cardiac Output) / Diameter; d (inner diameter of the left ventricular, end of diastole) / Diameter; s (inner diameter of the left ventricular, end of systole) / EF (Ejection Fraction) / FS (Fractional Shortening) / LV Mass (AW) (weight of the left ventricular) / LVAW; d (left ventricular anterior wall thickness, end of diastole) / LVAW; s (left ventricular anterior wall thickness, end of systole) / LVPW; d (left ventricular posterior wall thickness, end of diastole) / LVPW; s (left ventricular posterior wall thickness, end of systole) / SV (Stroke Volume) / Volume; d (volume of the left ventricular, end of diastole) / Volume; s (volume of the left ventricular, end of systole): 75 mg/kg in drinking water
Protocol: as §1
Echocardiography detection is performed once a month. Mice were anesthetized with tribromoethanol, scanned by small animal ultrasonic apparatus (Vevo 770 small animal ultrasonic detection system, Canada), with 30 MHz probe, M-mode echocardiography were analyzed: Body weight (BW), LVPW, d (the thickness of the left ventricular posterior wall at the end of the diastole), LVPW, s (the thickness of the left ventricular posterior wall at the end of the systole), LVAW, d (the thickness of the left ventricular anterior wall at the end of the diastole), LVAW, s (the thickness of the left ventricular anterior wall at the end of the systole), LV Mass (the weight of the left ventricular), Diameter, s (the inner diameter of the left ventricular at the end of the systole), Diameter, d (the inner diameter of the left ventricular at the end of the diastole), Volume, s (the volume of the left ventricular at the end of the systole), Volume, d (the volume of the left ventricular at the end of the diastole), SV (Stroke Volume), EF (Ejection Fraction), FS (Fractional Shortening) and CO (Cardiac Output).

[3] = long-term administration, echocardiography

## CC(C)=CCC[C@](C)(O[C@@H]1O[C@H](CO[C@@H]2O[C@H](CO)[C@@H](O)[C@H](O)[C@H]2O)[C@@H](O)[C@H](O)[C@H]1O)[C@H]1CC[C@]2(C)[C@@H]1[C@H](O)C[C@@H]1[C@@]3(C)CC[C@H](O[C@@H]4O[C@H](CO)[C@@H](O)[C@H](O)[C@H]4O[C@@H]4O[C@H](CO)[C@@H](O)[C@H](O)[C@H]4O)C(C)(C)[C@@H]3CC[C@]12C [Rb1, ginsenoside Rb1]
[1]; vs model group
  mortality rate (survival analysis, FIG. 2): reduce the mortality rate
[1]; group of twelve mice, model group four, negative control zero
  death of animal of the group (number): two
[2]; 0 month of administration
  CO (Cardiac Output): 19.59 ± 2.99
  Diameter; d (inner diameter of the left ventricular, end of diastole): 4.02 ± 0.32
  Diameter; s (inner diameter of the left ventricular, end of systole): 2.84 ± 0.41
  EF (Ejection Fraction): 57.05 ± 7.87
  FS (Fractional Shortening): 29.77 ± 5.07
  LV Mass (AW) (weight of the left ventricular): 92.06 ± 17.12
  LVAW; d (left ventricular anterior wall thickness, end of diastole): 0.67 ± 0.06
  LVAW; s (left ventricular anterior wall thickness, end of systole): 0.99 ± 0.12
  LVPW; d (left ventricular posterior wall thickness, end of diastole): 0.67 ± 0.07
  LVPW; s (left ventricular posterior wall thickness, end of systole): 0.85 ± 0.06
  SV (Stroke Volume): 40.00 ± 4.42
  Volume; d (volume of the left ventricular, end of diastole): 71.50 ± 13.77
  Volume; s (volume of the left ventricular, end of systole): 31.51 ± 11.53
[2]; 1 month of administration
  CO (Cardiac Output): 22.14 ± 2.64
  Diameter; d (inner diameter of the left ventricular, end of diastole): 4.33 ± 0.38
  Diameter; s (inner diameter of the left ventricular, end of systole): 3.01 ± 0.46
  EF (Ejection Fraction): 58.32 ± 7.31
  FS (Fractional Shortening): 30.78 ± 4.73
  LV Mass (AW) (weight of the left ventricular): 120.38 ± 13.83
  LVAW; d (left ventricular anterior wall thickness, end of diastole): 0.84 ± 0.12
  LVAW; s (left ventricular anterior wall thickness, end of systole): 1.21 ± 0.13
  LVPW; d (left ventricular posterior wall thickness, end of diastole): 0.67 ± 0.06
  LVPW; s (left ventricular posterior wall thickness, end of systole): 0.95 ± 0.11
  SV (Stroke Volume): 48.69 ± 5.08
  Volume; d (volume of the left ventricular, end of diastole): 85.37 ± 17.55
  Volume; s (volume of the left ventricular, end of systole): 36.68 ± 13.77
[2]; 2 month of administration
  CO (Cardiac Output): 21.89 ± 1.78
  Diameter; d (inner diameter of the left ventricular, end of diastole): 4.31 ± 0.27
  Diameter; s (inner diameter of the left ventricular, end of systole): 3.15 ± 0.39
  EF (Ejection Fraction): 52.93 ± 7.59
  FS (Fractional Shortening): 27.23 ± 5.02
  LV Mass (AW) (weight of the left ventricular): 111.52 ± 7.92
  LVAW; d (left ventricular anterior wall thickness, end of diastole): 0.78 ± 0.05
  LVAW; s (left ventricular anterior wall thickness, end of systole): 1.13 ± 0.14
  LVPW; d (left ventricular posterior wall thickness, end of diastole): 0.69 ± 0.08
  LVPW; s (left ventricular posterior wall thickness, end of systole): 0.88 ± 0.12
  SV (Stroke Volume): 43.68 ± 2.20
  Volume; d (volume of the left ventricular, end of diastole): 83.96 ± 12.12
  Volume; s (volume of the left ventricular, end of systole): 40.29 ± 11.15
[2]; 3 month of administration
  CO (Cardiac Output): 22.72 ± 3.18
  Diameter; d (inner diameter of the left ventricular, end of diastole): 4.61 ± 0.35
  Diameter; s (inner diameter of the left ventricular, end of systole): 3.47 ± 0.48
  EF (Ejection Fraction): 48.85 ± 9.39
  FS (Fractional Shortening): 24.88 ± 5.88
  LV Mass (AW) (weight of the left ventricular): 124.88 ± 20.30
  LVAW; d (left ventricular anterior wall thickness, end of diastole): 0.75 ± 0.08
  LVAW; s (left ventricular anterior wall thickness, end of systole): 0.98 ± 0.09
  LVPW; d (left ventricular posterior wall thickness, end of diastole): 0.71 ± 0.06
  LVPW; s (left ventricular posterior wall thickness, end of systole): 0.88 ± 0.11
  SV (Stroke Volume): 46.95 ± 6.12
  Volume; d (volume of the left ventricular, end of diastole): 98.37 ± 16.57
  Volume; s (volume of the left ventricular, end of systole): 51.42 ± 15.53
[2]; 4 month of administration
  CO (Cardiac Output): 24.42 ± 1.52
  Diameter; d (inner diameter of the left ventricular, end of diastole): 4.56 ± 0.26
  Diameter; s (inner diameter of the left ventricular, end of systole): 3.38 ± 0.35
  EF (Ejection Fraction): 51.07 ± 6.01
  FS (Fractional Shortening): 26.05 ± 3.64
  LV Mass (AW) (weight of the left ventricular): 131.15 ± 12.93
  LVAW; d (left ventricular anterior wall thickness, end of diastole): 0.81 ± 0.06
  LVAW; s (left ventricular anterior wall thickness, end of systole): 1.17 ± 0.11
  LVPW; d (left ventricular posterior wall thickness, end of diastole): 0.71 ± 0.06
  LVPW; s (left ventricular posterior wall thickness, end of systole): 0.89 ± 0.12
  SV (Stroke Volume): 48.37 ± 3.32
  Volume; d (volume of the left ventricular, end of diastole): 95.93 ± 13.01
  Volume; s (volume of the left ventricular, end of systole): 47.56 ± 11.76
[2]; 5 month of administration
  CO (Cardiac Output): 23.18 ± 3.13
  Diameter; d (inner diameter of the left ventricular, end of diastole): 4.93 ± 0.30
  Diameter; s (inner diameter of the left ventricular, end of systole): 3.86 ± 0.32
  EF (Ejection Fraction): 43.83 ± 3.93
  FS (Fractional Shortening): 21.76 ± 2.21
  LV Mass (AW) (weight of the left ventricular): 150.86 ± 25.12
  LVAW; d (left ventricular anterior wall thickness, end of diastole): 0.82 ± 0.12
  LVAW; s (left ventricular anterior wall thickness, end of systole): 1.13 ± 0.10
  LVPW; d (left ventricular posterior wall thickness, end of diastole): 0.74 ± 0.06
  LVPW; s (left ventricular posterior wall thickness, end of systole): 0.82 ± 0.08
  SV (Stroke Volume): 50.03 ± 5.63
  Volume; d (volume of the left ventricular, end of diastole): 115.02 ± 16.33
  Volume; s (volume of the left ventricular, end of systole): 64.99 ± 12.65
[2]; 6 month of administration
  CO (Cardiac Output): 25.99 ± 2.23
  Diameter; d (inner diameter of the left ventricular, end of diastole): 5.35 ± 0.19
  Diameter; s (inner diameter of the left ventricular, end of systole): 4.38 ± 0.19
  EF (Ejection Fraction): 37.03 ± 3.07
  FS (Fractional Shortening): 18.01 ± 1.71
  LV Mass (AW) (weight of the left ventricular): 180.65 ± 5.80
  LVAW; d (left ventricular anterior wall thickness, end of diastole): 0.74 ± 0.04
  LVAW; s (left ventricular anterior wall thickness, end of systole): 1.09 ± 0.09
  LVPW; d (left ventricular posterior wall thickness, end of diastole): 0.80 ± 0.01
  LVPW; s (left ventricular posterior wall thickness, end of systole): 0.93 ± 0.06
  SV (Stroke Volume): 51.20 ± 5.31
  Volume; d (volume of the left ventricular, end of diastole): 138.41 ± 11.40
  Volume; s (volume of the left ventricular, end of systole): 87.21 ± 8.99
[2]; 7 month of administration
  CO (Cardiac Output): 24.35 ± 4.80
  Diameter; d (inner diameter of the left ventricular, end of diastole): 5.46 ± 0.34
  Diameter; s (inner diameter of the left ventricular, end of systole): 4.60 ± 0.44
  EF (Ejection Fraction): 33.02 ± 6.64
  FS (Fractional Shortening): 15.92 ± 3.53
  LV Mass (AW) (weight of the left ventricular): 190.72 ± 20.29
  LVAW; d (left ventricular anterior wall thickness, end of diastole): 0.79 ± 0.12
  LVAW; s (left ventricular anterior wall thickness, end of systole): 1.08 ± 0.17
  LVPW; d (left ventricular posterior wall thickness, end of diastole): 0.82 ± 0.13
  LVPW; s (left ventricular posterior wall thickness, end of systole): 0.87 ± 0.19
  SV (Stroke Volume): 47.35 ± 6.92
  Volume; d (volume of the left ventricular, end of diastole): 145.92 ± 21.42
  Volume; s (volume of the left ventricular, end of systole): 98.58 ± 22.36
[2]; [3]
  cardiac function: improve the cardiac function
  dilation of cardiac chamber: significantly reduce
